“Also recorded” adds a separate entry of the source. Read-outs that look alike come from different tables or passages of the source. Non-standard residues stand in square brackets, D forms with d. *: point of attachment. Benzoyl(4-F) = O=C(c1ccc(F)cc1)*; Cit = NC(=O)NCCC[C@H](N)C(=O)O
Legend:
[1] = tested on: NSCLC cell lines (H358, A549, H460, H1299 and L4); assay: Colony assay (agar), NSCLC cell lines; format: cell-based, human
Experimental: (§1) The H460 (large cell carcinoma), A549 (Adenocarcinoma), H358 (Bronchoalveolar carcinoma), H1299 (large cell carcinoma)—cell lines were all purchased from ATCC and were maintained in RPMI (Gibco Laboratories, Grand Island, N.Y.) containing 10% fetal calf serum (FCS), 1 mM L-glutamine, 100 U/ml penicillin, and 0.01 mg/ml streptomycin (Biological Industries, Kibbutz Beth Haemek, Israel). L-4 (a primary NSCLC cell line) was generated from large cell carcinoma as previously described (Wald et al, J Thorac Cardiovasc Surg. 2011 June; 141(6): 1503-12).
(§2) Agar base layer was prepared as follows: 45 ml of RPMI+12% FCS was mixed with 15 ml of RPMI X2+12% FCS and with 15 ml of 2.5% agar in double distilled water. Tumor cells were suspended in RPMI+10% FCS. Cell suspension was mixed in a ratio of 1:3 with the agar base solution. This mixture was then plated on top of a preformed solid agar base. […] Fourteen days later, the number of colonies was counted in ten different fields.
(§3) Data was expressed as mean ±standard error (SE) and as absolute values. Continuous data with normal distribution were analyzed using T-test. Categorical data were analyzed using Mann-Whitney U test. A p value of 0.05 was considered significant. * P<0.05, ** P<0.01. Statistical analyses were performed using (SPSS software, (IBM).

[2] = tested on: H460 cells (large cell carcinoma); assay: Colony assay (agar), H460; format: cell-based, human
Experimental: as §1, §2, §3

[3] = tested on: A549 cells (Adenocarcinoma); assay: Colony assay (agar), A549; format: cell-based, human
Experimental: as §1, §2, §3

[4] = tested on: H1299 cells (large cell carcinoma); assay: Colony assay (agar), H1299; format: cell-based, human; conditions: 100 μg\ml BKT140 with CXCL12
Experimental: as §1, §2, §3

[5] = tested on: H358 cells (Bronchoalveolar carcinoma); assay: Colony assay (agar), H358; format: cell-based, human; conditions: 100 μg\ml BKT140 with CXCL12
Experimental: as §1, §2, §3

[6] = tested on: NSCLC cell lines (H358, A549, H460, H1299 and L4); assay: Proliferation and survival assays, NSCLC cell lines; format: cell-based, human; conditions: 20 or 100 μg/ml BKT140, dose dependant
Experimental: (§4) Color extraction was done using 0.1 N HCl. […] 6 wells were determined for each time point.

[7] = tested on: H460 cells (large cell carcinoma); assay: Proliferation / survival assay and Giemsa stain, H460; format: cell-based, human; conditions: for H460 tumor cell proliferation, agent alone: 0.1 μg/ml, did not completely inhibit proliferation
Experimental: as §4

H460 derived tumors = assay: H460 derived xenograft growth in Nude mice; format: in vivo; conditions: BKT140 400 μg/mice S.C. once daily 6/7 days a week
Experimental: (§5) 1*10^6 H460 cells mixed in 100 μl RPMI 1640 and 100 μl matrigel (BD Bioscience) were injected subcutaneously (S.C.) into the right flank of Nude mice. Tumor growth was followed for 19 days. 1*10^6 A549 cells mixed in 100 μl RPMI 1640 and 100 μl matrigel (BD Bioscience) were injected S.C. into the right flank of Nude mice. Tumor growth was followed for 35 days. Systemic BKT140 administration was performed as follows: BKT140 (400 μg/mice dissolved in PBS) was administered once daily 6/7 days a week, by S.C. injection into the left flank at a point distant at least 1.5 cm from the right sided tumor. Tumors size was calculated by measurement of tumor length and width using the following formula: 4/3*π*(length/2)*(width/2)^2.

A549 derived tumors = assay: A549 derived xenograft growth in Nude mice; format: in vivo; conditions: BKT140 400 μg/mice S.C. once daily 6/7 days a week
Experimental: as §5

human CXCR4 = target: T1, human CXCR4 (Homo sapiens, UniProt P61073); assay: Immunohistochemistry for CXCR4 in H460 derived tumors after S.C. BKT140; format: in vivo; conditions: BKT140 S.C. at a site distant from the tumor, 6 hours prior to sacrification
T1 construct: Tissue sections from H460 derived tumors were tested for CXCR4 expression; endogenous in cells; host or cells: H460 NSCLC cells grown as subcutaneous xenografts in Nude mice
Experimental: as §5
Tissue sections of tumor-bearing Nude mice were routinely fixed with formalin and embedded in paraffin. Antigen retrieval was performed, and sections were stained with either mAb 44708 (R&D Systems, Minneapolis, MN) or 12G5 (R&D Systems) for human CXCR4 (1:100) using a standard indirect avidin-biotin HRP method according to the manufacturer's instructions. 3-Amino-9-ethylcarbazole was used for color development and sections were counterstained with hematoxylin. As negative controls, sections were stained either with no primary Ab (PBS) or with an isotype-matched control Ab.

[8] = tested on: A549 cells (Adenocarcinoma); conditions: for A549 tumor cell proliferation, agent alone: 0.1 μg/ml, did not completely inhibit proliferation
Experimental: To measure cell proliferation, 4000 cells were seeded into 96-well cell culture plates with 200 μl RPMI 1640 medium supplemented with 10% FCS under the following conditions: 37° C., and 5% CO2. Twenty-four hours later, the medium was to changed to RPMI 1640 supplemented with 1% FCS. 20 μg\ml, 50 μg/ml or 100 μg\ml BKT140, with or without Cisplatin 0.1 μg/ml or paclitaxel 0.1 μg/ml to 1 μg/ml μg/ml were added to the medium. For radiation experiments, prior to plating of cells, the cells were irradiated at the following doses 500 to 2000 Rad. Cultured cells were fixed with 2.5% Gluteraldehyde at the indicated time points and stained with 1% Methylene Blue. Color extraction was done using 0.1 N HCl. Absorbance of the solution in each well at 570 nm was read with micro-plate reader (Anthos Htll). 6 wells were determined for each time point.

[9] = tested on: bone marrow derived cells; conditions: cited from earlier work
[10] = increasing BKT140 with irradiation 500 Rad, cisplatin 0.1 μg/ml or paclitaxel 0.1 μg/ml (paclitaxel data not shown)

T1 sequence (P61073 whole entry): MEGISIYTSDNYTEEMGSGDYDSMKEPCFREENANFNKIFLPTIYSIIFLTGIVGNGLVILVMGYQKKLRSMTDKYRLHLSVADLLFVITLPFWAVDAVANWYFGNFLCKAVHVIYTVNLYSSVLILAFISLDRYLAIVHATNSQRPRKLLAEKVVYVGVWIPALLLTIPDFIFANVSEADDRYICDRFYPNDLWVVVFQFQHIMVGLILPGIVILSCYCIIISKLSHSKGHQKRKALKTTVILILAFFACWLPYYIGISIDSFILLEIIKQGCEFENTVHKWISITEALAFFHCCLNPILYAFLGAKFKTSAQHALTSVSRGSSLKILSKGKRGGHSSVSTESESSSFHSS

For “4F-benzoyl-Arg-Arg-Nal-Cys-Tyr-Cit-Lys-DLys-Pro-Tyr-Arg-Cit-Cys-Arg-NH2 ({Benzoyl(4-F)}-RR[Nal]CY[Cit]K[dK]PYR[Cit]CR-NH2; cysteine pairing not given here) [BKT140]”, which colony formation ([1]; single dose of 100 μg\ml BKT140 on day one, over entire range of CXCL12 concentrations) is on record?
The colony formation was “reduced colony formation”.

And the “inhibitory effect on colony formation (compared between cell lines)” value ([2]; 100 μg\ml BKT140 with CXCL12)?
The value was “most evident”.

What about the “inhibitory effect on colony formation (compared between cell lines)” value ([3]; 100 μg\ml BKT140 with CXCL12) of the same molecule?
The value was “least evident”.

What about the “inhibitory effect on colony formation (compared between cell lines)” value [4] of the same molecule?
Its value is “most evident”.

And the “inhibitory effect on colony formation (compared between cell lines)” value [5]?
The value was “least evident”.

What about the “NSCLC proliferation (cytostatic / cytotoxic effect)” value [6] of the same molecule?
Its value is “inhibited; also recorded: both cytostatic and cytotoxic effects”.

What about the tumor cell survival [6] of the same molecule?
The tumor cell survival was “reduced tumor cell survival”.

And the “H460 tumor cell proliferation” value ([7]; BKT140 20 μg/ml)?
The value was “completely arrest”.

What about the H460 cytotoxic effect ([7]; BKT140 100 μg/ml) of the same molecule?
Its H460 cytotoxic effect is “tumor cell death”.

What about the “H460 proliferation, combination effect” value [7, 10] of the same molecule?
Its value is “additive anti proliferative effects”.

And the “volume / development of H460 derived tumors” value (H460 derived tumors; 19 days)?
The value was “significantly reduced; also recorded: significantly delayed”.

And the “decrease of median tumor volume” value (H460 derived tumors; H460)?
Its value is about 50%.

What about the “volume / development of A549 derived tumors” value (A549 derived tumors; 35 days) of the same molecule?
Its value is “much reduced effect”.

What about the “decrease of median tumor volume” value (A549 derived tumors; A549) of the same molecule?
The value was about 50%.

What about the “CXCR4 staining of tumor tissue (binding to tumor expressed CXCR4)” value (human CXCR4) of the same molecule?
The value was “completely blocked CXCR4 staining”.

And the “A549 tumor cell proliferation” value ([8]; BKT140 20 μg/ml)?
The value was “did not affect”.

And the “A549 tumor cell proliferation” value ([8]; BKT140 100 μg/ml)?
Its value is “significantly reduced”.

What about the “A549 proliferation, combination effect” value [8, 10] of the same molecule?
The value was “additive anti proliferative effects”.

And the “time of return of mobilization to base line” value ([9]; post BKT140 injection)?
The value was 24 h.

What about the “time of peak mobilization of bone marrow derived cells” value ([9]; post S.C. injection) of the same molecule?
The value was “four to eight”.

What does the source list for `N.N.[Cl][Pt][Cl]` [cisplatin, reference compound]?
H460 tumor cell proliferation, agent alone [7]: moderate anti-proliferative effect; A549 tumor cell proliferation, agent alone [8]: moderate anti-proliferative effect

Which colony formation ([1]; CXCL12 25-250 ng/ml, colonies counted after fourteen days) does the source give for “CXCL12: The chemokine CXCL12 (stromal-derived factor-1 or SDF-1), the only natural ligand of CXCR4” here?
Its colony formation is “dose dependant increase in colony formation”.

And the “fold increase in colony number” value ([2]; 250 ng/ml CXCL12)?
Its value is 2.5 fold.

What about the “fold increase in colony number” value ([3]; similar CXCL12 concentrations (250 ng/ml)) of the same molecule?
The value was 1.4 fold.

Which results are given for `CC(=O)O[C@H]1C(=O)[C@@]2(C)[C@H]([C@H](OC(=O)c3ccccc3)[C@]3(O)C[C@H](OC(=O)[C@H](O)[C@@H](NC(=O)c4ccccc4)c4ccccc4)C(C)=C1C3(C)C)[C@]1(OC(C)=O)CO[C@@H]1C[C@@H]2O` [paclitaxel, reference compound]?
H460 tumor cell proliferation, agent alone [7]: moderate anti-proliferative effect; A549 tumor cell proliferation, agent alone [8]: moderate anti-proliferative effect

Reference: patent US9439942B2, “Peptides and use thereof in the treatment of large cell lung cancer” (Biokine Therapeutics Ltd., priority 2012, dated 2016)
